According to US6825180B2, “Pyridopyrimidine compounds and their uses” (Cell Therapeutics, Inc., priority 2001, dated 2004):
“And” between values parts separate entries of the source, which are not always exact repeats. Equal entries are not always repeated. Structures can show the parent of a compound that is named as a salt.

How the values were obtained:
IL-12 signaling [1] = assay: IL-12 dependent in vitro T-helper cell (Th1) differentiation assay; format: cell-based; conditions: inhibition of IL-12 induced Th1 differentiation as defined by IFN-γ production upon secondary stimulation with anti-CD3 alone, splenic T cells, seven days culture
Procedure: This example illustrates the inventive compounds' ability to suppress Th1 differentiation in vitro by blocking IL-12 signaling. The compounds from Examples 1, 2, 6, and 7 were tested in an IL-12 dependent in vitro T-helper cell differentiation assay as described in LeGross et al., J. Exp. Med., 172:921-929 (1990). Recombinant IL-12 was used to induce Th1 differentiation. Splenic T cells were purified utilizing the antibodies RA3-3A1/6.1 (anti-B220), J11d and MAR18.5 (anti-rat kappa chain) to deplete the B cells by magnetic bead separation, as described in Coon et al, J. Immuno., 163:6567-6574 (1989). Splenic T cells were stimulated at 5×10^5/ml with insoluble anti-CD3 alone (145-2C11, Pharmingen, San Diego, Calif.), or anti-CD3 and 5 U/ml IL-12, with and without each inventive compound. After seven days, equal numbers of viable cells were restimulated for 24 hours with anti-CD3 without the inventive compounds, and the supernatants were collected and assayed for IFN—γ production. IFN-γ and IL-4 levels were measured by ELISA test specific for IFN-γ and IL-4.
Th1 differentiation was induced by culturing anti-CD3 stimulated T cells in the presence of exogenous IL-12. […] It was observed that the presence of the tested compounds during T cell activation inhibited Th1 differentiation, which had been enhanced by the addition of exogenous IL-12. The values in the “IC50 μM” column were determined by measuring the inhibition of IL-12 induced Th1 differentiation as defined by IFN-γ production upon secondary stimulation with anti-CD3 alone. None of the compounds affected the viability or recovery of T cells after one week of culture.

IL-12 signaling [2] = assay: Modified acute assay; format: cell-based; conditions: T-cell, 72 h, purified splenic T cells, anti-CD3 or lectin stimulation, Interferon-γ by ELISA
Procedure: The compounds of Examples 3-10 were tested in a modified acute assay which is used to screen for compounds that perturb IL-12 signaling. The assay measures the biological effects of compounds on IL-12 signaling during the differentiation of T1 responses rather than the outcome of differentiation, as measured using a T1 Differentiation Assay. Purified splenic T cells were stimulated either by crosslinking their T cell receptors with immobilized anti-CD3 antibody or by binding with a soluble lectin (e.g. Conconavalin A). The cells were incubated for 72 hours after which time supernatants are collected and relative Interferon-γ amounts determined by ELISA. The Modified Acute Assay measured a directed IL-12 response derived from a population of cells in a variety of activation states and can be thought of as a more stochastic response.

Compound | IC50 (IL-12 signaling [1]; T-cell, 168 h) [µM] | IC50 (IL-12 signaling [1]) | IC50 (IL-12 signaling [2]) [µM] | IC50 (IL-12 signaling [1]; Acetic Acid Salt) [µM]
Cc1cc(=O)c2c(=O)n(CCCC[C@@H](C)O)c(=O)n(C)c2[nH]1 [Example 1, (R)-1,7-Dimethyl-3-(5-hydroxyhexyl)pyrido[2,3-d]pyrimidine-2,4,5(1H,3H,8H)-trione] | 19 | 24 µM and 28 µM |  | 
CO[C@H](C)CCCCn1c(=O)c2c(=O)cc(C)[nH]c2n(C)c1=O [Example 2, (R)-1,7-Dimethyl-3-(5-methoxyhexyl)pyrido[2,3-d]pyrimidine-2,4,5(1H,3H,8H)-trione] | 7 |  |  | 
CNc1cc(C)nc2c1c(=O)n(CCCC[C@@H](C)O)c(=O)n2C [Example 3, (R)-1,7-Dimethyl-3-(5-hydroxyhexyl)-5-(N-methylamino)pyrido[2,3-d]pyrimidine-2,4(1H,3H)-dione] |  |  | < 10 | 
Cc1cc(=O)c2c(=O)n(CCCC[C@@H](C)O)c(=O)n(C)c2n1Cc1ccccc1 [Example 5, (R)-8-Benzyl-1,7-dimethyl-3-(5-hydroxyhexyl)pyrido[2,3-d]pyrimidine-2,4,5(1H,3H,8H)-trione] |  |  | 8 | 

Second part, the compound after the results:

IC50 (IL-12 signaling [1]; T-cell, 168 h) [µM] | IC50 (IL-12 signaling [1]) | IC50 (IL-12 signaling [2]) [µM] | IC50 (IL-12 signaling [1]; Acetic Acid Salt) [µM] | Compound
14 |  | 9 | 16 | Cc1cc(=O)c2c(=O)n(CCCC[C@@H](C)N(C)C)c(=O)n(C)c2[nH]1 [Example 6, (R)-1,7-Dimethyl-3-(5-(N,N-dimethylamino)hexyl)pyrido[2,3-d]pyrimidine-2,4,5(1H,3H,8H)-trione, Acetic Acid Salt]
> 40 |  | 26 |  | Cc1cc(N(C)C)c2c(=O)n(CCCC[C@@H](C)N(C)C)c(=O)n(C)c2n1 [Example 7, (R)-1,7-Dimethyl-5-(N,N-dimethylamino)-3-(5-(N,N-dimethylamino)hexyl)pyrido[2,3-d]pyrimidine-2,4(1H,3H)dione]
 |  | 33 |  | Cc1cc(C)c2c(=O)n(CCCC[C@@H](C)O)c(=O)n(C)c2n1 [Example 8, (R)-3-(5-Hydroxyhexyl)-1,5,7-trimethylpyrido[2,3-d]pyrimidine-2,4(1H,3H)-dione]
 |  | > 40 |  | Cc1cc(=O)[nH]c2c1c(=O)n(CCCC[C@@H](C)O)c(=O)n2C [Example 9, (R)-1,5-Dimethyl 3-(5-hydroxyhexyl)pyrido[2,3-d]pyrimidine-2,4,7(1H,3H,8H)-trione]
 |  | 6 |  | Cc1cc(N(C)C)nc2c1c(=O)n(CCCC[C@@H](C)O)c(=O)n2C [Example 10, (R)-1,5-Dimethyl-7-(N,N-dimethylamino)-3-(5-hydroxyhexyl)-2,4-pyrido[2,3-d]pyrimidine-2,4(1H,3H)-dione]
